Measured values as given in ChEMBL document CHEMBL4673237, “Annulation reaction enables the identification of an exocyclic amide tricyclic chemotype as retinoic acid Receptor-Related orphan receptor gamma (RORγ/RORc) inverse agonists” (Bioorg Med Chem Lett, 2020).

Experiments:
[1] = Metabolic stability in mouse liver microsomes assessed as parent compound remaining; format: ADME, Microsome
[2] = Metabolic stability in human liver microsomes assessed as parent compound remaining; format: ADME, Microsome
[3] = target: Cytochrome P450 2D6 (Homo sapiens, UniProt P10635); test: Inhibition of recombinant CYP2D6 (unknown origin); format: ADME; conditions: recombinant enzyme, dose >10 µM
[4] = target: T1, Nuclear receptor subfamily 1 group I member 2 (Homo sapiens, UniProt O75469); test: Inhibition of PXR (unknown origin); conditions: dose >50 µM
T1 sequence (O75469 whole entry): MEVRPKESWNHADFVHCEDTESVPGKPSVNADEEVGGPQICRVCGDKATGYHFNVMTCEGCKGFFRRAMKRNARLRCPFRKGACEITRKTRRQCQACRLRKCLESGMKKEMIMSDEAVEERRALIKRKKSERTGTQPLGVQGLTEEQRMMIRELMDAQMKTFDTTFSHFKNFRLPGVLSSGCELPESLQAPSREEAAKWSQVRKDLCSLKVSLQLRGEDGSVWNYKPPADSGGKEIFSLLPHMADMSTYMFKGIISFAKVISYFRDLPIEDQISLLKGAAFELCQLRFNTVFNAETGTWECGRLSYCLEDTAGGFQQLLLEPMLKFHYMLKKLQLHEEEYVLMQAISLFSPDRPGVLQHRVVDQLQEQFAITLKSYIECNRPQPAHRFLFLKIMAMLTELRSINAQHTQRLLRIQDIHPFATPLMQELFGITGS

[5] = Metabolic stability in human liver microsomes assessed as half life
[6] = Permeability from apical side to basolateral side in human Caco-2 cells; format: ADME, cell-based; conditions: read-out: permeability
[7] = Metabolic stability in mouse liver microsomes assessed as half life
[8] = target: Cytochrome P450 2C19 (Homo sapiens, UniProt P33261); test: Inhibition of recombinant CYP2C19 (unknown origin); format: ADME; conditions: recombinant enzyme, dose >10 µM
[9] = Protein binding in mouse serum assessed as unbound fraction; format: ADME, cell-free
[10] = target: T2, Cytochrome P450 2C8 (Homo sapiens, UniProt P10632); test: Inhibition of recombinant CYP2C8 (unknown origin); format: ADME; conditions: recombinant enzyme, dose >10 µM
T2 sequence (P10632 whole entry): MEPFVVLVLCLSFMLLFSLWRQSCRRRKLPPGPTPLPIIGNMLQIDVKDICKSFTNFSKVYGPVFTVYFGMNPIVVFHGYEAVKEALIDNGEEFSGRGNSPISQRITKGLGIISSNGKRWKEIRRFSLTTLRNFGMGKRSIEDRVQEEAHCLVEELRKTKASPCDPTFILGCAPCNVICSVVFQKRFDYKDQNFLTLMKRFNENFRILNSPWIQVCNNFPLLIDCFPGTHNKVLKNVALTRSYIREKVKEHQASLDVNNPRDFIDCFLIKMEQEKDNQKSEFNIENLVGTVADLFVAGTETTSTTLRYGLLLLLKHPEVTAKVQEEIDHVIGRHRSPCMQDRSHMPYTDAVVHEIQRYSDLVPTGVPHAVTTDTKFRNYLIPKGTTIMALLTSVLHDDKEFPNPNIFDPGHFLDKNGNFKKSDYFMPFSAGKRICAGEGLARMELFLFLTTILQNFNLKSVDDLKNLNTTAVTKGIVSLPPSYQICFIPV

[11] = Protein binding in human serum assessed as unbound fraction; format: ADME, cell-free
[12] = target: T3, Cytochrome P450 1A2 (Homo sapiens, UniProt P05177); test: Inhibition of recombinant CYP1A2 (unknown origin); format: ADME; conditions: recombinant enzyme, dose >10 µM
T3 sequence (P05177 whole entry): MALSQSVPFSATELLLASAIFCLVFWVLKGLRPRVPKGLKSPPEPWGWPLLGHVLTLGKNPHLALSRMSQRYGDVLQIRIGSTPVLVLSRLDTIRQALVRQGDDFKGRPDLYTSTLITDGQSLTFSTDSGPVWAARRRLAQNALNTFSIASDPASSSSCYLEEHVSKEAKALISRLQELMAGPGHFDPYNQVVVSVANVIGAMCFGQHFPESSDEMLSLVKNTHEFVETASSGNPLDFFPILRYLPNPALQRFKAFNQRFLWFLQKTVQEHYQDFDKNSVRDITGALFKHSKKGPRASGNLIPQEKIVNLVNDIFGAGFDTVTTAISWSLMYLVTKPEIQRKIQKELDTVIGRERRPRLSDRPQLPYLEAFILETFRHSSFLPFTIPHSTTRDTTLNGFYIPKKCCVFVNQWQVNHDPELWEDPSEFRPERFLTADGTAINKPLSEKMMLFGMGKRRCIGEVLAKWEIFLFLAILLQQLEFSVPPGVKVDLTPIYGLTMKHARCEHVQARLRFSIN

[13] = target: Cytochrome P450 2C9 (Homo sapiens, UniProt P11712); test: Inhibition of recombinant CYP2C9 (unknown origin); format: ADME; conditions: recombinant enzyme, dose >10 µM
Chain of Cytochrome P450 2C9 (P11712 whole entry): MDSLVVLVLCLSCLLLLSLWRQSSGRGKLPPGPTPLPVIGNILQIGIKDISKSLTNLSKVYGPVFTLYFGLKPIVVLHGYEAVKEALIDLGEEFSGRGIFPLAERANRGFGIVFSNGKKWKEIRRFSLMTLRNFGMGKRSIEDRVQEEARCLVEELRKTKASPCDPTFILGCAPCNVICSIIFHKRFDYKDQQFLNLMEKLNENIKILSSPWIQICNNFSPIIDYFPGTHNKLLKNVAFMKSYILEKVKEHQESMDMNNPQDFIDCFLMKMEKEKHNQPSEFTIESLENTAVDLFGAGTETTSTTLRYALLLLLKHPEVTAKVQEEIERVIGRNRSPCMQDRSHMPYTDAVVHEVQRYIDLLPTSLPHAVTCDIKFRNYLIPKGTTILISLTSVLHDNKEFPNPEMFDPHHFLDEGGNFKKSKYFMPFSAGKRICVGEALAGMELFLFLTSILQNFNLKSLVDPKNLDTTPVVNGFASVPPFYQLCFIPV

Chain of Cytochrome P450 2C19 (P33261 whole entry): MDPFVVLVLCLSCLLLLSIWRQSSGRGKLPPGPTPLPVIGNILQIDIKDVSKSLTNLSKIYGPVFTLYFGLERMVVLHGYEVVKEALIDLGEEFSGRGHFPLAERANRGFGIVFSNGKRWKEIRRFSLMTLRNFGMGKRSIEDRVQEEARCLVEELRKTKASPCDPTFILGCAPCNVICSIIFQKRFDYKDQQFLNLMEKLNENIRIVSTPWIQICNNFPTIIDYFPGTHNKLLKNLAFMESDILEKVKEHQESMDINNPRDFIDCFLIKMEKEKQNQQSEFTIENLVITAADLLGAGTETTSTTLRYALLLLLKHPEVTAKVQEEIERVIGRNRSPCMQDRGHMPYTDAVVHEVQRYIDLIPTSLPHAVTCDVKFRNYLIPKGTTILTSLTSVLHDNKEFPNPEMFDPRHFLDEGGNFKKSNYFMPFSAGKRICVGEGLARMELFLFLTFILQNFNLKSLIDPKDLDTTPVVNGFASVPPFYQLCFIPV
Chain of Cytochrome P450 2D6 (P10635 whole entry): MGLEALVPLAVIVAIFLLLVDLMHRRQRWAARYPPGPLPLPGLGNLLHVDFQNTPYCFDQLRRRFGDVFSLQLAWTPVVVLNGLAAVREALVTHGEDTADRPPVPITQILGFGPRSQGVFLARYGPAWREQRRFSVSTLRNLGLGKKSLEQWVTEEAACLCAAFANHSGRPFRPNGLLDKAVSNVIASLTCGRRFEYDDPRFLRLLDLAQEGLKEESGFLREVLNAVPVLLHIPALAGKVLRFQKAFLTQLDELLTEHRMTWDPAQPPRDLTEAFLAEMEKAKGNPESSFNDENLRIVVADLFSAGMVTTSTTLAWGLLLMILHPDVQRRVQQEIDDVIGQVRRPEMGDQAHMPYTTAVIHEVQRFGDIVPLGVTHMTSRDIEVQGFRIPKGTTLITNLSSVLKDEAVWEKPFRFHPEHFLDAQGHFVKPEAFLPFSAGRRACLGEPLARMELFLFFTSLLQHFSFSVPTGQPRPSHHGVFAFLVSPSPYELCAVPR

| Stabilty [1] [%] | Stabilty [2] [%] | Compound | also measured |
| --- | --- | --- | --- |
| 55 | 53 | C[C@@H](CO)NC(=O)[C@@H]1CC[C@@]2(S(=O)(=O)c3ccc(F)cc3)c3ccc(C(F)(C(F)(F)F)C(F)(F)F)cc3CC[C@@H]12 |  |
| 38 | 5 | O=C(NCC1(O)CCCCC1)[C@@H]1CC[C@@]2(S(=O)(=O)c3ccc(F)cc3)c3ccc(C(F)(C(F)(F)F)C(F)(F)F)cc3CC[C@@H]12 |  |
| 100 | 100 | O=C(NC[C@H](O)C(F)(F)F)[C@@H]1CC[C@@]2(S(=O)(=O)c3ccc(F)cc3)c3ccc(C(F)(C(F)(F)F)C(F)(F)F)cc3CC[C@@H]12 |  |
| 78 | 86 | O=C(NCCO)[C@@H]1CC[C@@]2(S(=O)(=O)c3ccc(F)cc3)c3ccc(C(F)(C(F)(F)F)C(F)(F)F)cc3CC[C@@H]12 |  |
| 39 | 46 | C[C@H](CO)NC(=O)[C@@H]1CC[C@@]2(S(=O)(=O)c3ccc(F)cc3)c3ccc(C(F)(C(F)(F)F)C(F)(F)F)cc3CC[C@@H]12 |  |
| 57 | 74 | O=C(NCC1(O)CCC1)[C@@H]1CC[C@@]2(S(=O)(=O)c3ccc(F)cc3)c3ccc(C(F)(C(F)(F)F)C(F)(F)F)cc3CC[C@@H]12 |  |
| 41 | 22 | O=C(NCC1(O)CCCC1)[C@@H]1CC[C@@]2(S(=O)(=O)c3ccc(F)cc3)c3ccc(C(F)(C(F)(F)F)C(F)(F)F)cc3CC[C@@H]12 |  |
| 41 | 34 | C[C@H](O)CNC(=O)[C@@H]1CC[C@@]2(S(=O)(=O)c3ccc(F)cc3)c3ccc(C(F)(C(F)(F)F)C(F)(F)F)cc3CC[C@@H]12 |  |
| 26 | 19 | O=C(NCC1(O)CC1)[C@@H]1CC[C@@]2(S(=O)(=O)c3ccc(F)cc3)c3ccc(C(F)(C(F)(F)F)C(F)(F)F)cc3CC[C@@H]12 |  |
| 51 | 56 | C[C@@H](O)CNC(=O)[C@@H]1CC[C@@]2(S(=O)(=O)c3ccc(F)cc3)c3ccc(C(F)(C(F)(F)F)C(F)(F)F)cc3CC[C@@H]12 |  |
| 14 | 75 | CC(C)(O)C(C)(C)NC(=O)[C@@H]1CC[C@@]2(S(=O)(=O)c3ccc(F)cc3)c3ccc(C(F)(C(F)(F)F)C(F)(F)F)cc3CC[C@@H]12 |  |
| 77 | 99 | CC(C)(O)CNC(=O)[C@@H]1CC[C@@]2(S(=O)(=O)c3ccc(F)cc3)c3ccc(C(F)(C(F)(F)F)C(F)(F)F)cc3CC[C@@H]12 | INH [3]: > 10 µM; INH [4]: > 50 µM; half-life [5]: 1.35 h; Papp A→B [6]: 15 ×10⁻⁶ cm/s; half-life [7]: 0.683 h; INH [8]: > 10 µM; Fu [9]: 0.4%; INH [10]: > 10 µM; Fu [11]: 0.5%; INH [12]: > 10 µM; INH [13]: > 10 µM |
